The values that follow come from patent publication US8202835B2, “Disease treatment via antimicrobial peptides or their inhibitors” (priority 2005, dated 2012).

The test system of one data set is human psoriatic skin. Put plainly: Human in-vivo psoriatic lesion treatment. As to conditions: blind trial; for skin psoriatic lesion, 5 days treatment: Cathelicidin 10 ug/ml applied to lesions in a human subject. The method, then:
Human in-vivo psoriatic lesion treatment: Cathelicidin 10 ug/ml or human beta defensin-2 diluted in PBS containing 0.1% BSA, or buffer carrier was applied to lesions in a human subject in a blind trial.

The next data set has as its system BALB/C mice. Put plainly: DSS induced acute colitis model of IBD, disease activity index (DAI). Type of data set: in vivo, mouse. As to conditions: DSS treated control group average DAI 3; score 0 to 4. The method, then: BALB/C mice were induced with acute colitis by feeding dextran sulfate sodium (DSS) in drinking water for one week and synthetic cathelicidin was administered intrarectally daily during colitis induction.
Mice were induced with acute colitis by being given 3% DSS (molecular weight, 36-50 kDa) according to the method described by Liu et al. (Carcinogenesis 24:1407-1413, 2003). The 3% DSS was given in their drinking water liar 7 days (from Day 0 to Day 7). Normal control mice received tap water throughout the experiment.
Intrarectal administration of AMPs Cathelicidin mCRAMP (5 mg/Kg/day), beta-Defensin 1 (1 mg/Kg/day), beta-Defensin 3 (1 mg/Kg/day), Elafin and SLPI, CCL20 (1 mg/Kg/day), lysozyme (3 mg/Kg/day)), as well as bactericidal/permeability increasing protein (1 mg/Kg/day). The mice were divided into two groups of 10, one receiving ordinary tap water and the disease group with DSS treatment. The peptides were intrarectally administrated once daily for 10 consecutive days beginning 3 dayd before DSS treatment. The PBS control mice received equal volumes of PBS (i.e., 100 ul) intrarectally.
In all tested animals, body weight, stool consistency, and presence of gross bleeding were recorded. Disease activity index (DAI) was calculated according to the method described by Cooper et al. (Lab Invest 69:238-249, 1993.). In brief, body weight loss, stool consistency, and bleeding were scored from 0 to 4, and DAI is the combined score divided by 3.
In addition, a parallel experiment using mCRAMP (0.8 mg/Kg) administered by injection into the peritoneum 3 times a week beginning at one week before DSS treatment. In this experiment, two groups of mice (10 in each) were compared were the control group received saline during DSS treatment while the treatment group received mCRAMP (0.8 mg/Kg) intraperitonculy 3 times a week.
AMPs were applied both individually or together in combination.

A further data set deals with BETATC beta cell line. Nature of the data set: Thymidine incorporation cell proliferation assay. In kind it is cell-based, mouse. As to conditions: LL-37 2 microgram/ml, 3.5 days, vs PBS control. The method, then:
Murine beta cell line were treated for 3.5 days with LL-37 at 2 microgram/ml (red/dark bars) and compared to PBS control ([…]). Cell proliferation was estimated by measuring [3(H)]-thymidine incorporation and was expressed as percent of control untreated cells. A representative experiment is shown.
Antimicrobial peptides (AMPs): The antimicrobial peptides human cathelicidin LL-37: […] (SEQ ID NO: 14) was obtained from AnaSpec, USA (Catalogue numbers: 61302). Cathelicidin at 2 ug/ml was added to the plate and compared with control.
Thymidine incorporation cell proliferation assay: Cell proliferation was evaluated by measuring [3(H)]-thymidine incorporation into DNA. Cells were pulsed with [3(H)]-thymidine (1 microcurie/mL, ICN, Irvine, Calif.) for 1 hour, at 37 degrees centigrade. After incubation, cells were washed 3 times with PBS, incubated for 15 minutes at room temperature in 5% trichloroacetic acid and solubilized in 1% triton X-100. The radioactivity incorporated into the cells was counted in the [3(H)]-window of a Tricarb liquid scintillation counter. Mean values were determined from measurements of triplicate samples under each experimental condition for each experiment. Thymidine incorporation was determined as number of disintegrations per minute (DPM) per mg of protein.
In general terms: Uptake of a labelled nucleoside into DNA is a usual measure of proliferation.

The conditions of data set [1]: Infection and immunity, November 1999, p. 6084-6089; cited from earlier work.

Entries after “also recorded” stand apart in the source; their conditions may differ. No end group written: not given here.

With “human beta defensin-2: Human Beta-Defensin-2 peptide purchased from Sigma-Aldrich (GIGDPVTCLKSGAICHPVFCPRRYKQIGTCGLPGTKCCKKP; ends and bridges not checked; cysteine pairing not given here; UniProt O15263 24-64, looked up) [reference compound]”, the “skin psoriatic lesion, seven week course of treatment” value in the data set on human psoriatic skin (applied to lesions in a human subject, FIG. 20) is reported as “worsening of skin psoriatic legion”. Besides, in the data set with BALB/C mice, the “average DAI (disease activity index)” value is 1.8. As for “SKEKIGKEFKRIVQRIKDFLRNLVPRTES (listed as Homo sapiens) [SK29, fragment cathelicidin SK29]”, the “skin psoriatic lesion, 5 days treatment” value in the data set with human psoriatic skin was “slight improvement”. With “LLGDFFRKSKEKIGKEFKRIVQRIKDFLRNLVPRTES [LL-37]”, the “skin psoriatic lesion, 5 days treatment” value with human psoriatic skin is reported as “slight improvement”. Moreover, the “cell proliferation ([3(H)]-thymidine incorporation)” value in the data set with BETATC beta cell line is on record as “significant BETATC beta cell line proliferation; also recorded: slight increase in cell proliferation”. For the same molecule, the “half-life in blood of humans” value in data set [1] is reported as “approximately 3.4 days”. “beta-Defensin 3: antimicrobial peptide tested in the DSS colitis model (GIINTLQKYYCRVRGGRCAVLSCLPKEEQIGKCSTRGRKCCRRKK; ends and bridges not checked; cysteine pairing not given here; UniProt P81534 23-67, looked up)”: the “average DAI (disease activity index)” value with BALB/C mice was determined as 1.8. For “Alpha-Defensin 6: antimicrobial peptide reported in the DSS colitis model (AFTCHCRRSCYSTEYSYGTCTVMGINHRFCCL; ends and bridges not checked; cysteine pairing not given here; UniProt Q01524 69-100, looked up)”, in the data set with BALB/C mice, the “average DAI (disease activity index)” value turned out to be 1.8.

B1: Alpha-Defensin 5: antimicrobial peptide reported in the DSS colitis model (peptide, UniProt Q01523 20-94, looked up)
Defensin alpha 5: ESLQERADEATTQKQSGEDNQDLAISFAGNGLSALRTSGSQARATCYCRTGRCATRESLSGVCEISGRLYRLCCR
modifications: Defensin-5
notes: antimicrobial peptide reported in the DSS colitis model
For the molecule B1, the “average DAI (disease activity index)” value in the data set on BALB/C mice was 1.8.
